Laboratory results: US20210122780A1, “COMPOSITIONS FOR THE PREVENTION AND TREATMENT OF PARKINSON'S DISEASE” (Metselex, Inc., priority 2018, published 2021)
Entries after “also recorded” stand apart in the source; their conditions may differ. Where two headings read alike, the source gives them in different places.

Key:
[1] = Stability in tris glycine buffer before AP addition (31P NMR); type: physicochemical; conditions: 0.100 M tris glycine buffer, 1.0 mM ZnCl2, 1.0 mM MgCl2, 1 h
Description: (§1) Compound 19d (10.0 mg, 0.016 mmol) or compound 3 (8.7 mg, 0.016 mmol) were dissolved in 0.6 mL of a 0.100 M tris glycine buffer solution containing 1.0 mM ZnCl2 and 1.0 mM MgCl2. […] 50 μL of the previously prepared AP stock solution was further diluted by addition to 0.950 mL of a 0.100 M tris glycine buffer containing 1.0 mM ZnCl2 and 1.0 mM MgCl2. 10.0 μL of this diluted AP solution was added to the prodrug solution by syringe. A series of 42 inverse-gated decoupled ^31P NMR's were taken (24 scans each, approximately one minute acquisition time). Conversion (%) was determined from the relative integration of the starting material and product peaks, NMR time stamps were used to determine time. Each experiment was repeated three times.

[2] = type: physicochemical; conditions: for percent starting material remaining: after one week at rt in D2O solution; for stability on cold storage: stored in a freezer / cold
Description: Measurement of chemical stability of phosphorylated compounds. 4.0 mg of prodrug (19b, 19c, or 19d) were dissolved in 1.0 mL D2O. A sealed capillary tube containing phenylphosphonic acid dissolved in D2O was added as a standard. At time=0, a ^1H NMR spectrum was obtained and the proton signal at […]5.51 was integrated (It=0) relative to the aromatic signals from phenylphosphonic acid. After 7 days at rt, a new NMR spectrum was taken and the proton signal at δ 5.51 was integrated again (It=7). The percent starting material remaining was It=7/It=0×100. Each experiment was repeated three times. Chemical stability results obtained either by measuring the disappearance of starting material relative to the internal standard by ^31P NMR or by using inverse-gated decoupled phosphorus NMR and integrating starting material and product were very similar to the numbers obtained using ^1H NMR. For 19e, 4.0 mg 19b was dissolved in D2O and an additional equivalent of Tris added (the stoichiometry was confirmed by ^1H NMR) and the experiment conducted as above.

[3] = Aqueous solubility of prodrug salts; conditions: water
[4] = type: physicochemical; conditions: after one day at rt
Description: Chemical stability in pH 7.4 tris-buffered saline. 4.0 mg of prodrug 19d was dissolved in 0.9 mL H2O. To this solution was added 0.1 mL of tris-buffered saline (BM-300 from Boston BioProducts), containing tris (250 mM), KCl (27 mM), and NaCl (1.37 M). A sealed capillary tube containing phenylphosphonic acid dissolved in D2O was added as a standard. Chemical stability results were obtained by measuring the disappearance of starting material relative to the internal standard by ^31P NMR. The experiment was repeated three times. The standard deviation was ±3%.

[5] = system: Alkaline phosphatase from bovine intestinal mucosa; experiment: Alkaline phosphatase activation of prodrugs (31P NMR); type: biochemical; conditions: in vitro, FIG. 5
Description: Alkaline phosphatase activation of prodrugs 3 and 19d. Alkaline phosphatase from bovine intestinal mucosa (Sigma-Aldrich, P5521-2KU) was dissolved in 2.0 mL of a 0.100 M sodium glycine buffer containing 1.0 mM ZnCl2 and 1.0 mM MgCl2. This stock solution was stored at 4° C. between uses.
as §1

SH-SY5Y cells [6] = system: SH-SY5Y cells
Description: (§3) Human dopaminergic neuronal cell line, SH-SY5Y, was cultured in DMEM/F12 medium supplemented with 10% FBS (v/v), penicillin (100 U/m)-streptomycin (100 μg/ml) in 5% CO2 at 37° C. […] Usually, the culture medium was changed to DMEM/F12 medium with 0.5% FBS before any treatment to reduce the serum effect. In order to prevent the direct interaction between the treated chemicals, the culture medium was changed to fresh low-serum medium at the ent of pretreatment. UDCA was dissolved in ethanol as a 100× stock solution and diluted to the desired final concentrations. To estimate cell viability, 3-(4,5-dimetnylthiazol-2-yl)-2,5-diphenyltetrazolium bromide (MTT) reduction assay was performed. After cells were treated ad culture medium was removed, MTT solution (50 μg, 1 mg/ml in phosphate buffered saline, PBS) was added to each well in 96-well plate and incubated for 4 h at 37° C. The medium was carefully removed, 100 μl DMSO added to each well, and the plate agitated on an orbital shaker for 15 min to dissolve the formazan. The absorbance was measured at 540 nm using a microplate reader (SepctraMax M2, Molecular Devices).

SH-SY5Y cells [7] = experiment: MTT cell viability, SNP-induced cytotoxicity; conditions: for impact on UDCA-mediated protection against SNP-induced cytotoxicity: inhibitor 1 h, UDCA 200 μM 1 h, SNP 1 mM 24 h
Description: as §3

mitochondrial membrane = experiment: Bax-induced alterations of mitochondrial membrane (FIG. 1, 2)
SH-SY5Y cells [8] = experiment: Nuclear staining (Hoechst 33342/PI) for apoptosis and necrosis; type: cell-based, human; conditions: pretreatment prior to SNP 1 mM 24 h
Description: For the fluorescent detection of apoptotic and necrotic cells, nuclear staining with Hoechst dye 33342 and propidium iodide (PI) was performed. SH-SY5Y cells were exposed to SNP (1 mM) for 24 h with or without pretreatment with UDCA or YS. After fixation with 1% paraformaldehyde (PBS) for 30 min at room temperature, cells were washed with PBS and then stained with Hoechst 33342 (10 μM) for 10 min. Cells were washed with PBS and further stained with PI (10 μM) for 10 min. Stained cells were washed with PBS and observed under a fluorescent microscopy. The apoptotic cells were determined as bright condensed and fragmented nuclei. PI positive cells stained with pink to red color were counted as necrotic cells.

SH-SY5Y cells [9] = experiment: Total ROS production (H2DCFDA); type: cell-based, human; conditions: 1 mM SNP
Description: (§2) After washing with Hank's balanced salt solution (HBSS), cells were incubated with 20 μM H2DCFDA or 50 μM DHR at 37° C. for 30 min, and then rinsed with HBSS. The fluorescence intensity was measured using an automatic fluorescence microplate reader (SpectraMax M2, Molecular Devices) at an excitation wavelength of 485 nm and an emission of 535 nm. The values were expressed as a percentage of fluorescence intensity to the untreated control group. The production of NO was determined by measuring nitrite, a stable oxidation product of NO in the culture medium. […] After a 10-min reaction, the absorbance at 550 nm was measured in a microplate reader (VersaMax, Molecular Devices). Sodium nitrite (NaNO2) was used as a standard to calculate nitrite concentrate and the values were expressed in micromoles.

SH-SY5Y cells [10] = experiment: NO production (Griess reagent, nitrite); type: cell-based, human; conditions: SNP 24 h
Description: as §2

SH-SY5Y cells [11] = experiment: Mitochondrial membrane potential (JC-1); type: cell-based, human
Description: Anaspec Inc.). JC-1 preferentially accumulates in mitochondria as red aggregates in normal conditions but it exists as green monomers in the cytosol when MMP collapsed during apoptosis. The ratio of red/green fluorescence correlates with MMP. […] Next, 5 μg/ml JC-1 was added and incubated at 37° C. for 15 min in dark. After wash three times with PBS, MMP was measured at 535/590 nm (Ex/Em) for red fluorescence and 485/535 (Ex/Em) for green fluorescence using a fluorescence multimode microplate reader (Infinite 200; Tecan). Results were calculated as the ratio of red-to-green fluorescence and the values were expressed as the percentage over control.

Bcl-2, Bax, cytochrome c = experiment: Immunoblot analysis of Bcl-2, Bax, cytochrome c; type: cell-based, human
Description: Whole cell proteins were extracted using RIPA buffer (PBS, 1% NP-40, 0.5% Na deoxycholate, 0.1% SDS, 0.1 mg/ml PMSF, 30 mg/ml aprotinin, 1 mM Na3VO4). Cells were washed twice with PBS, lysed with RIPA buffer for 30 min on ice, and then centrifuged at 14,000×g for 10 min at 4° C. The supernatants were used as the total cell lysates. In some experiments, mitochondrial fraction was prepared from SH-Sy5Y cells using mitochondrial/cytosolic fraction kit (Biovision, Inc., Mountain View) according to the manufacturer's protocol. Protein concentration was determined by BCA protein assay kit (BioRad, Hercules, Calif.) using bovine serum albumin as a standard. […] The membrane was flocked in fresh blocking buffer (5% nonfat dry milk in Tris-buffered saline, pH 7.4, and containing 0.1% Tween 20) for 2 h at room temperature and rinsed in TBST buffer (0.1% Tween 20 in Tris-buffered saline, pH 7.4). The membrane was incubated at 4° C. with the following primary antibodies at dilutions of 1/1000: Bax, cytochrome c, Cox-4 or 1/4000: Bcl-2, actin. After three times washing with TBST buffer, membranes were incubated with horse radish peroxidase (HRP)-conjugated secondary antibodies (1:2000 dilutions) for 2 h at room temperature. Subsequently, the membrane was washed in TBST and the immunoreactive bands were detected by ECL chemiluminescence kit (GE Healthcare, USA). Protein bands were quantified by densitometric analysis.

Primary rat hepatocytes = experiment: Microarray gene expression profiling (Affymetrix Rat Expression Array 230A); type: cell-based; conditions: 100 μM UDCA, 24 h
Description: We determined the global profile of genes regulated by UDCA by using Affymetrix GeneChip® Rat Expression Array 230A, consisting of approximately 16,000 transcripts and variants. cRNA prepared from vehicle-treated cells was used for comparative analysis. The relative levels of gene expression after 24 h treatment of hepatocytes with 100 μM UDCA were compared by plotting the average difference between cells, and determining the fold change in gene expression. […] We also assessed the specificity and sensitivity of the microarray analysis. Hierarchical clustering was performed using specific gene subsets.

## C[C@H](CCC(=O)[O-])[C@H]1CC[C@H]2[C@@H]3[C@@H](O)C[C@@H]4C[C@H](OP(=O)([O-])O)CC[C@]4(C)[C@H]3CC[C@]12C.[Na+].[Na+] [Compound 3, 3-(Phosphonatooxy)-ursodeoxycholic acid sodium salt]
[1]
  decomposition by 31P NMR in buffer: Neither compound showed decomposition

## C[C@H](CCC(=O)[O-])[C@H]1CC[C@H]2[C@@H]3[C@@H](OCOP(=O)(O)O)C[C@@H]4C[C@H](O)CC[C@]4(C)[C@H]3CC[C@]12C.C[C@H](CCC(=O)[O-])[C@H]1CC[C@H]2[C@@H]3[C@@H](OCOP(=O)(O)O)C[C@@H]4C[C@H](O)CC[C@]4(C)[C@H]3CC[C@]12C.[Na+].[Na+] [Compound 13b, 7-(Phosphonooxymethoxy)-ursodeoxycholic acid sodium salt]
[2]; D2O, overnight
  stability in D2O solution overnight: a significant portion of the material decomposed
[3]
  aqueous solubility, rapidly dissolving at all concentrations tested: ≥ 10 mg/mL

## CC(CCC(=O)OCOP(=O)(O)O)C1CCC2C3C(O)CC4CC(O)CCC4(C)C3CCC12C (stereo not shown) [Compound 19b, ursodeoxycholic acid phosphonooxymethoxy ester]
[2]
  percent starting material remaining: 36%
  stability on cold storage: stable for extended periods of time when stored in a freezer
[3]
  aqueous solubility, rapidly dissolving at all concentrations tested: ≥ 20 mg/mL

## CC(CCC(=O)OCOP(=O)(O)O)C1CCC2C3C(O)CC4CC(O)CCC4(C)C3CCC12C (stereo not shown) [Compound 19c, ursodeoxycholic acid phosphonooxymethoxy ester]
[2]
  percent starting material remaining: 34%

## CC(CCC(=O)OCOP(=O)(O)O)C1CCC2C3C(O)CC4CC(O)CCC4(C)C3CCC12C (stereo not shown) [Compound 19d, ursodeoxycholic acid phosphonooxymethoxy ester]
[2]
  percent starting material remaining: 88%
[2]; solution, ambient temperature
  chemical stability in solution: decomposed at a much slower rate
[2]; listed as mono-Tris salt of 19
  stability on cold storage: stable for extended periods when stored cold
[4]
  percent remaining in pH 7.4 tris buffer: 81%
[5]
  rate of alkaline phosphatase catalyzed release of UDCA: more rapidly released
[1]
  decomposition by 31P NMR in buffer: Neither compound showed decomposition
[3]
  aqueous solubility, rapidly dissolving at all concentrations tested: > 20 mg/mL

## COc1ccc2c(c1)c(C1=C(c3c[nH]c4ccccc34)C(=O)NC1=O)cn2CCCN(C)C [Go6983]
SH-SY5Y cells [6]
  cell viability, inhibitor alone: had no effects on cell viability
SH-SY5Y cells [7]
  impact on UDCA-mediated protection against SNP-induced cytotoxicity: did not have significant impact

## O=c1cc(N2CCOCC2)oc2c(-c3ccccc3)cccc12 [LY294002]
SH-SY5Y cells [7]
  impact on UDCA-mediated protection against SNP-induced cytotoxicity: reversed

## C[C@H](CCC(=O)NCCS(=O)(=O)O)[C@H]1CC[C@H]2[C@@H]3[C@@H](O)C[C@@H]4C[C@H](O)CC[C@]4(C)[C@H]3CC[C@]12C [TUDCA, tauroursodeoxycholic acid]
Mitochondrial membrane; FIG. 1
  Bax-induced alterations in mitochondrial membrane polarity: prevents
Mitochondrial membrane; FIG. 2
  Bax-induced alterations in mitochondrial membrane protein order: prevents

## C[C@H](CCC(=O)O)[C@H]1CC[C@H]2[C@@H]3[C@@H](O)C[C@@H]4C[C@H](O)CC[C@]4(C)[C@H]3CC[C@]12C [UDCA, ursodeoxycholic acid]
SH-SY5Y cells [8]
  apoptotic rate: 8.45±2.01%
SH-SY5Y cells [9]; 50 μM pretreatment
  ROS generation, % of SNP-treated group: 79.68%
SH-SY5Y cells [9]; 100 μM pretreatment
  ROS generation, % of SNP-treated group: 72.59%
SH-SY5Y cells [9]; 200 μM pretreatment
  ROS generation, % of SNP-treated group: 58.09%
SH-SY5Y cells [10]; 50 μM pretreatment
  NO production compared with the group treated with SNP alone: 91.44%
SH-SY5Y cells [10]; 100 μM pretreatment
  NO production compared with the group treated with SNP alone: 82.88%
SH-SY5Y cells [10]; 200 μM pretreatment
  NO production compared with the group treated with SNP alone: 77.26%
SH-SY5Y cells [11]; Homo sapiens, SH-SY5Y, 50 μM pretreatment, 1 mM SNP 12 h, read-out: MMP, % of control group
  activity at 50 µM: 71%
SH-SY5Y cells [11]; Homo sapiens, SH-SY5Y, 100 μM pretreatment, 1 mM SNP 12 h, read-out: MMP, % of control group
  activity at 100 µM: 88%
SH-SY5Y cells [11]; Homo sapiens, SH-SY5Y, 200 μM pretreatment, 1 mM SNP 12 h, read-out: MMP, % of control group
  activity at 200 µM: 87%
SH-SY5Y cells [11]; no SNP, FIG. 4B
  MMP, substance alone: did not show any alterations in MMP
Bcl-2, Bax, cytochrome c; UDCA per se
  ratio of Bcl-2/Bax: 2.52±0.16 fold of control
Bcl-2, Bax, cytochrome c; pretreatment with UDCA prior to SNP treatment
  ratio of Bcl-2/Bax: 2.21±0.09 fold of control
Bcl-2, Bax, cytochrome c; pretreatment with UDCA, SNP 1 mM
  cytochrome c release from the mitochondria into the cytosol: 1.41±0.06 fold of control
Primary rat hepatocytes
  altered genes fulfilling the filtering criteria: 96 genes
  genes down-regulated: 68 genes
  genes up-regulated: 28 genes
  genes with alterations in expression, greater than 1.5-fold change: Approximately 441 genes
  share of genes with alterations in expression: ~2.76%
SH-SY5Y cells [7]; 24 h at doses of 50-200 μM, no SNP
  cell viability, substance alone: no obvious change in the viability
SH-SY5Y cells [7]; pretreatment 1 h, then 1 mM SNP 24 h
  SNP-induced loss of cell viability / cytotoxicity: prevented; also recorded: significantly attenuated
